This passage reports logP and logD results from the SangsterLogP compilation.

Each structure is given as a SMILES string.

Test in series [1]: not given
The source holds these as a separate data set.

Test in series [2]: not given
This is another data set of the same source.

Series [3] can be described thus: method code SF-AS, from DOI: 10.2307/3574491, PMID: 940937. As to conditions: pH 7.4.
Test in series [4]: not given
The source holds these as a separate data set.

Series [5] can be described thus: method code SF-RC,AS, from DOI: 10.1016/s0022-3565(25)22658-1, PMID: 3367302. Conditions: pH 7.4.
Test in series [6]: not given
The source holds these as a separate data set.

For series [7] the following is noted: pH 2.0.
Series [8] is described as follows: method code SF-AS, from DOI: 10.1023/a:1021720128725.
The nature of series [9]: method code SF-GLC, from DOI: 10.1080/00032718608066246. As to conditions: pH 7.0.
A short description of series [10]: method code SF-RC, from DOI: 10.1007/bf01870888, PMID: 7057454.
Test in series [11]: not given
This is another data set of the same source.

Test in series [12]: not given
This is another data set of the same source.

Series [13] can be described thus: method code SF-HPLC, from DOI: 10.1021/js980008v, PMID: 9758683.
Test in series [14]: not given
This is another data set of the same source.

Test in series [15]: not given
This is another data set of the same source.

Test in series [16]: not given
This is another data set of the same source.

Test in series [17]: not given
This is another data set of the same source.

Turning to `CC(C)(C(=O)O)C(=O)O`, the logP (commonly the decadic logarithm of the partition coefficient of the neutral form, usually between octanol and water) was 0.26.
Compound `Cc1ccccc1C(=N)c1ccccc1` displayed a lipophilicity (logP) in [1] of 3.21.
In series [2], `Nc1c(Cl)c(Cl)nc(C(=O)O)c1Cl` had a logP of 1.
With `Cn1c(C=O)cnc1[N+](=O)[O-]`, the logD (usually lipophilicity at a set pH, counting ionised and neutral species) in [3] is -0.1.
On to `Nc1cccc(N)c1`, for which the logP stood at 0.
Compound `CO[C@H]1CCC[C@H]2C1=C(C(=O)OC(C)OC(=O)OC1CCCCC1)N1C(=O)[C@H]([C@@H](C)O)[C@@H]21` (some centres undefined) had a logP in [4] of 3.
In the case of `[N-]=[N+]=N[C@H]1C[C@H](n2ccc(=O)[nH]c2=O)O[C@@H]1CO`, the pH-dependent lipophilicity (logD) in series [5] is -0.37.
Consider `O=[N+]([O-])c1nccn1CCO`, for which, in series [3], the logD was -0.51.
Still for that read-out and setting: then `COCC(O)Cn1c([N+](=O)[O-])cnc1C` (centres undefined), with 0.04.
Consider `Cc1c(F)c(F)c(COC(=O)[C@H]2[C@@H](/C=C(\Cl)C(F)(F)F)C2(C)C)c(F)c1F`, for which the log partition coefficient (logP) in series [6] worked out at 6.5.
`CC(=O)OCCOC(C)=O` came in with a logP of 0.1.
As for `Cc1ccc(C(=O)O)c(C2=NC(C)(C(C)C)C(=O)N2)c1` (centres undefined), the logP in series [6] was 1.54.
Turning to `C/C=C/C=C/C(=O)O`, in series [7], the logD was determined as 1.64.
With `CN(C)C(=O)Nc1ccc(Oc2ccc(Cl)cc2)cc1`, in [2], the logP was determined as 3.7.
In series [8], `Nc1nc2c(nc(Br)n2COCCO)c(=O)[nH]1` came in with a log partition coefficient (logP) of -0.26.
`c1ccc2nc3ccccc3cc2c1`: in series [9], the log distribution coefficient (logD) is 3.32.
Consider `CCNC(=O)[C@@H](C)OC(=O)Nc1ccccc1`, for which, in series [2], the lipophilicity (logP) stood at 1.
In turn, `Cc1cccc(C)c1C(=N)c1ccccc1` displayed a log partition coefficient (logP) in series [1] of 3.53.
For the compound `COc1ccc(-c2cn3c(=O)c4ncn(COCCO)c4nc3[nH]2)cc1`, the logP in series [8] was 0.39.
In [1], `Cc1ccc(C(=N)c2ccc(C)cc2)cc1` came in with a log partition coefficient (logP) of 3.71.
Take `NC(N)=O`: the log partition coefficient (logP) in [10] is -1.54.
As for `COP(=S)(CN1C(=O)c2ccccc2C1=O)OC`, the logP is 2.83.
Regarding `CC(C)(C)c1cccc(C(C)(C)C)c1O`, the logP in series [11] was 4.92.
As to `CCCC(C)C1(CC)C(=O)NC(=S)NC1=O` (centres undefined), the lipophilicity (logP) in series [12] was 2.54.
As for `CCN(CC)CCO`, the logP is 0.31.
Consider `CCC(=O)OCN1C(=O)NC(c2ccccc2)(c2ccccc2)C1=O`, for which, in series [13], the logP turned out to be 3.34.
Compound `Nc1c(Cl)cc(Cl)cc1Cl` yielded a logP in series [14] of 3.42.
In the case of `CCOC(=O)Cn1c(CC)cnc1[N+](=O)[O-]`, the logD in series [3] is 0.
In series [3], `Cc1cnc([N+](=O)[O-])n1CCO` came in with a logD of 0.18.
For `COc1ccc(/C=C/[N+](=O)[O-])cc1`, the logP in [15] is 2.2.
On to `CCOP(=S)(OCC)SCSP(=S)(OCC)OCC`, for which, in series [6], the logP is 4.
Take `CCCCCC`: the logP in series [16] was 3.9.
`O=C(O)c1ccc(O)cc1O` yielded a log partition coefficient (logP) in series [17] of 1.41.
In [4], `Cc1c(C)c2c(c(C)c1O)CCC(C)(COc1ccc(CC3SC(=O)NC3=O)cc1)O2` (centres undefined) yielded a logP of 2.7.
